Experimental data published in patent US20190389963A1, “COMBINATION THERAPY BY USING ANTI-GLOBO H OR ANTI-SSEA-4 ANTIBODY WITH ANTI-NEGATIVE IMMUNE CHECK POINTS ANTIBODY” (OBI Pharma, Inc., priority 2018, published 2019).

Tests used:
Jurkat/NFAT-Re Luc cells = assay: Jurkat/NFAT-Re Luc T cell activation by Anti-CD3/CD28, luciferase reporter, after pre-incubation with Globo series ceramides; format: cell-based, human; details: various concentrations of ceramide, pre-incubated 18-24 hours; 6 hours activation; FIG. 2
Experimental: Jurkat/NFAT-Re Luc cells (Promega, Inc., Cat# G7102) were pre-incubated with or without various concentrations of chemically synthesized Globo H ceramide (GHCer) or SSEA-4 ceramide (SSEA4Cer) for 18-24 hours in 48-well culture plate. Cells were collected and transferred to white, flat-bottom 96-well assay plates (Greiner Bio-One GmbH, Cat#655073) coated overnight with Anti-human CD3 (100 ng/well) (BioLegend, Inc. Cat#317326), and Anti-human CD28 (300 ng/well) (BioLegend, Inc. Cat#302914) in 37° C. incubator for a 6 hours activation. Assay plates were removed from the incubator and equilibrated to room temperature (22-25° C.) for 15 minutes. 75 μL of Bio-Glo™ Luciferase Assay Reagent (Promega, Inc. Cat#G7940) was added and incubated the plates at RT for 15 minutes. Luminescence was measured using a microplate reader SpectraMax L (Molecular Devices, LLC.). The Photomultiplier Tube (PMT) sensitivity was set as autorange and calibrated at 570 nm. Fold of induction was calculated by RLUactivated/RLUunstimulated.

[1] = system: PD-1 Effector Cells with PD-L1+ target cells (TCR signaling); assay: PD-1/PD-L1 Blockade Bioassay with GHCer or SSEA4Cer treated PD-1 Effector Cells; format: cell-based; details: various concentration of ceramide on PD-1 Effector Cells 24 hours, 6 hours with PD-L1+ cells; FIG. 6 as printed
Experimental: Various concentration of GHCer or SSEA4Cer was incubated with PD-1 Effector Cells (PD-1/PD-L1 Blockade Bioassay Kit, Promega, Cat# J3011), then incubate for 24 hours at 37° C. PD-L+ target cells (PD-1/PD-L1 Blockade Bioassay Kit, Promega, Cat# J3011) were seeded in 96 well plate and incubate for 24 hours at 37° C. with 5% CO2. The growth medium from the plate coated PD- L1+ cells was replaced by the GHCer or SSEA4Cer/Effector cells R×n and incubated for 6 hours. Plate was removed to ambient temperature for 10 mins. Bio-Glo™ Reagent was added and incubate for 15 mins then read by luminometer.

[2] = system: PD-1/PD-L1 engagement inhibited TCR signaling (PD-1 Effector Cells, PD-L1+ target cells); assay: PD-1/PD-L1 Blockade Bioassay, GHCer treated effector cells with Keytruda or Tecentriq; format: cell-based; details: 6 hours, FIG. 7; for Release of PD-1/PD-L1 engagement inhibited TCR signaling by checkpoint antibody: 2 μM antibody, effector cells with 40 μM GHCer
Experimental: (§1) 40 μM GHCer was incubated with PD-1 Effector Cells (PD-1/PD-L1 Blockade Bioassay Kit, Promega, Cat# J3011), then incubate for 24 hours at 37° C. with 5% CO2. PD-L1+ target cells were seeded in 96 well plate and incubate for 24 hours at 37° C. with 5% CO2. The growth medium from the plates coated PD-L+ cells was replaced by the GHCer/Effector cells R×n with 2 μM Keytruda, the Anti-PD-1 mAb, or 2 lμM Tecentriq, the Anti-PD-L1 mAb, and incubate for 6 hours at 37° C. with 5% CO2. Plate was removed to ambient temperature for 10 mins. Bio-Glo™ Reagent was added and incubate for 15 mins then read by luminometer.

[3] = system: GHCer and PD-1/PD-L1 engagement inhibited TCR signaling (PD-1 Effector Cells, PD-L1+ target cells); assay: PD-1/PD-L1 Blockade Bioassay, GHCer pre-incubated with OBI-888, combined with Keytruda or Tecentriq; format: cell-based; details: 10 μM OBI-888 with GHCer 4 hours; 2 μM Keytruda or 2 μM Tecentriq, 6 hours; FIG. 10 as printed
Experimental: (§2) GHCer were incubated with 10 μM OBI-888 in assay medium containing 99% RPMI 1640/1% FBS (PD-1/PD-L1 Blockade Bioassay Kit, Promega, Cat# J3011) at 37° C. for 4 hours. Samples were centrifuged at 8000×g for 5 minutes twice and supernatant were harvested and incubated with PD-1 Effector Cells for 24 hours. PD-L1+ target cells were seeded in 96 well plate and incubate for 24 hours at 37° C. with 5% CO2. The growth medium from the plates coated PD- L1 cells was replaced by the GHCer/Effector cells R×n with 2 μM Keytruda or 2 μM Tecentriq and incubate for 6 hours at 37° C. with 5% CO2. Plate was removed to ambient temperature for 10 mins. Bio-Glo™ Reagent was added and incubate for 15 mins then read by luminometer.

[4] = system: SSEA4Cer and PD-1/PD-L1 engagement inhibited TCR signaling (PD-1 Effector Cells, PD-L1+ target cells); assay: PD-1/PD-L1 Blockade Bioassay, SSEA4Cer pre-incubated with OBI-898, combined with Keytruda or Tecentriq; format: cell-based; details: 5 μM OBI-898 with SSEA4Cer 4 hours; 2 μM Keytruda or 2 μM Tecentriq, 6 hours; FIG. 11 as printed
Experimental: as §2, with “SSEA4Cer were” for “GHCer were”, “with 5” for “with 10”, “μM OBI-898” for “μM OBI-888”, “medium” for “medium containing 99% RPMI 1640/1% FBS (PD-1/PD-L1 Blockade Bioassay Kit, Promega, Cat# J3011)”, “hours. PD-L+” for “hours. PD-L1+”, “the SSEA4Cer/Effector” for “the GHCer/Effector”

[5] = system: PD-1/PD-L1 engagement inhibited TCR signaling (PD-1 Effector Cells, PD-L1+ target cells); assay: PD-1/PD-L1 Blockade Bioassay, SSEA4Cer treated effector cells with Keytruda or Tecentriq; format: cell-based; details: 6 hours, FIG. 8; for Release of PD-1/PD-L1 engagement inhibited TCR signaling by checkpoint antibody: 2 μM antibody, effector cells with 40 μM SSEA4Cer
Experimental: as §1, with “SSEA4Cer” for “GHCer”, “SSEA4Cer/Effector” for “GHCer/Effector”, “μM” for “lμM”

| Substance | Jurkat T cell activation to Anti-CD3/28 stimulation (fold of induction, RLUactivated/RLUunstimulated) (Jurkat/NFAT-Re Luc cells) | Suppression of TCR activation signaling pathway together with PD-1/PD-L1 engagement [1] | Effect of GHCer incorporation on Keytruda or Tecentriq released TCR signaling ([2]; 40 μM GHCer on effector cells 24 hours, 2 μM Keytruda or 2 lμM Tecentriq) | Rescue of GHCer and PD-1/PD-L1 engagement inhibited TCR signaling by combination [3] | Rescue of SSEA4Cer and PD-1/PD-L1 engagement inhibited TCR signaling by combination [4] | Release of PD-1/PD-L1 engagement inhibited TCR signaling by checkpoint antibody [5] | Release of PD-1/PD-L1 engagement inhibited TCR signaling by checkpoint antibody [2] | Effect of SSEA4Cer incorporation on Keytruda or Tecentriq released TCR signaling ([5]; 40 μM SSEA4Cer on effector cells 24 hours, 2 μM Keytruda or 2 μM Tecentriq) |
| --- | --- | --- | --- | --- | --- | --- | --- | --- |
| Globo H ceramide [GHCer] | suppress the Jurkat T cell activation to Anti-CD3/28 stimulation in a dose dependent manner | acts synergistically with PD-1/PD-L1 engagement to suppress the TCR activation signaling pathway | reduced Keytruda or Tecentriq released PD-1/PD-L1 engagement inhibited TCR signaling |  |  |  |  |  |
| Keytruda: the Anti-PD-1 mAb; MSD Ireland, Lot 7302614A13 |  |  |  | acts synergistically with Keytruda | acts synergistically with Keytruda | released PD-1/PD-L1 engagement inhibited TCR signaling | released PD-1/PD-L1 engagement inhibited TCR signaling |  |
| SSEA-4 ceramide [SSEA4Cer] | suppress the Jurkat T cell activation to Anti-CD3/28 stimulation in a dose dependent manner | acts synergistically with PD-1/PD-L1 engagement to suppress the TCR activation signaling pathway |  |  |  |  |  | reduced Keytruda or Tecentriq released PD-1/PD-L1 engagement inhibited TCR signaling |
| Tecentriq: the Anti-PD-L1 mAb; Roche, Lot H0125B11 |  |  |  | synergistically with Keytruda or Tecentriq | synergistically with Keytruda or Tecentriq | released PD-1/PD-L1 engagement inhibited TCR signaling | released PD-1/PD-L1 engagement inhibited TCR signaling |  |
